Source: publication PMC10520499, “Next step in the development of mesoprogestins: the preclinical profile of EC313” (Frontiers in Endocrinology, 2023)

What was measured:
[1] = biological target: T1, human progesterone receptor ligand binding domain (PR-LBD) (Homo sapiens, UniProt P06401); test: Competitive binding, PR ligand binding domain; settings: compared to progesterone
T1 construct: purchased Thermo Fisher Scientific
Method: (§1) The study aimed to characterize the competitive binding profile of EC313 to relevant human nuclear receptors. For the assays, commercially available ‘ligand binding domain’ proteins were purchased (Thermo Fisher Scientific). In addition, the full-length receptor proteins were expressed in transfected HI insect cells using the `Bac-to-bac Baculovirus expression system´ (Thermo Fisher Scientific). Cellular lysates served as receptor preparation. Receptor protein preparations were incubated with tritiated reference ligands and EC313 or reference steroids at concentrations between 0.1 and 1000 nM for 2h at 4°C to reach equilibrium. Subsequently, unbound steroids were adsorbed to dextran-coated charcoal (Sigma Aldrich), separated by filtration, and the remaining radioactivity was quantified in a ß-counter (Perkin Elmer). Displacement curves were fitted using the GraphPad Prism 7 free version to obtain EC50 values. Relative binding affinity (RBA [%], (C50ref/C50test)*100) and the competition coefficient (C50test/C50ref) were used to describe the relative binding potency of EC313 compared to the reference ligands.

[2] = biological target: T2, human estrogen receptor β (Homo sapiens, UniProt Q92731); test: Competitive binding, human estrogen receptor β; settings: ERβ, full length
T2 construct: coding for the full length human estrogen receptors α and β, respectively, were obtained from GenScript; made in house; host or cells: HI (Hi5) insect cells, baculovirus; cellular lysate
Method: as §1
There are two subtypes of estrogen receptors (ER), ERα and ERβ, coded in different genes. Plasmids pFastBac1-ERa and pFastBac1-ERb, coding for the full length human estrogen receptors α and β, respectively, were obtained from GenScript. […]

[3] = tested on: orchiectomized male Wistar rats; test: Hershberger assay; type: in vivo, rat; settings: 3, 10 and 30 mg/animal/day s.c., 7 days; ± Testosterone propionate 1 mg/animal/day
Method: To test EC313 for potential androgenic or anti-androgenic potential, the Hershberger assay was used. Orchiectomized male Wistar rats were treated for 7 consecutive days with daily subcutaneous injections of EC313 (3, 10, and 30 mg/animal/day).
The potential anti-androgenic activity was assessed by co-administration of Testosterone propionate (TP; 1 mg/animal/day s.c.), which also served as the positive control, and EC313. The vehicle served as the negative control. One day after the last treatment, animals were sacrificed and the prostate gland and the seminal vesicles were removed and weighed. The relative weight of these organs, expressed as mg/100 g body weight, served as the endpoint.

[4] = tested on: immature female ovariectomized Wistar rats; test: Uterus growth test in immature ovariectomized rats; type: in vivo, rat; settings: daily s.c. doses of up to corresponding to 172 mg/kg body weight
Source text: […] The vehicle served as the negative control. After treatment, the animals were sacrificed on day 4, and their vagina and uterine horns were dissected and weighed.

GR = biological target: T3, GR (Homo sapiens, UniProt P04150); test: GR transactivation (HELA, MMTV-LUC); type: cell-based; set-up: HELA cells line carrying endogenous glucocorticoid protein; endogenous in cells; host or cells: HELA, stably transfected with the reporter only
T3 sequence (P04150 1-777): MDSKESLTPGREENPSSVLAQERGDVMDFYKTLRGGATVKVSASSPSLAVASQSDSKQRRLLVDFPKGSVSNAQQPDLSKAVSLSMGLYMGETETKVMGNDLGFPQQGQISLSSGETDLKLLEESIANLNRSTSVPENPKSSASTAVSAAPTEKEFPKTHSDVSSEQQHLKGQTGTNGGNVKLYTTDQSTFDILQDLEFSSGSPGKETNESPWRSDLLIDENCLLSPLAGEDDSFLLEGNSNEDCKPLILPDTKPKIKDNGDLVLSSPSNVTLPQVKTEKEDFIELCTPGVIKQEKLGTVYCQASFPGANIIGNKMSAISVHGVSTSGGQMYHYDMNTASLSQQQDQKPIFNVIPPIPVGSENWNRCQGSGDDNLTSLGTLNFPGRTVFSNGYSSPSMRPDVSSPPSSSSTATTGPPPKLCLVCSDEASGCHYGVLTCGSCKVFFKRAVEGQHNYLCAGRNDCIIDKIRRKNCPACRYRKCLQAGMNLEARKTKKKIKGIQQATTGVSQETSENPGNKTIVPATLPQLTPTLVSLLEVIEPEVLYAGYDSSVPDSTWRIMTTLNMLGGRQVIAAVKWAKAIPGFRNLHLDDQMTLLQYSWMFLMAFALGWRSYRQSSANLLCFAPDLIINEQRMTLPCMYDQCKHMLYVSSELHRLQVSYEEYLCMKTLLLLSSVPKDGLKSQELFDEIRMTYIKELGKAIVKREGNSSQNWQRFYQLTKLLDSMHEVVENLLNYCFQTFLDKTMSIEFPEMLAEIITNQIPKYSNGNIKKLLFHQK
Method: HELA cells line carrying endogenous glucocorticoid protein were cultured in order to study gene expression on the transcriptional level under the influence of the tested compounds. The cells were transfected with reporter vector MMTV/LUC. To produce high protein overexpression, stable transfection was carried out. […] Agonist and antagonist properties of EC313 toward tested receptor GR were analyzed using luminescence detection.
In order to develop the transfection assay, plasmids were generated and isolated. Vector pGL4.36 coding the glucocorticoid receptor responsive element MMTV and firefly luciferase reporter vector [luc2P/Hygro] were used as a reporter system (pGL4.36-MMTV/LUC). The cells were transfected with reporter vector MMTV/LUC.
stable transfection with reporter vector was performed on a 6-well plate (0.5x10^6 cells per well) in culture medium (EMEM, 10% FBS, NEAA, sodium […], L-glutamine). Briefly, according to the transfection procedure, cells were passaged, and they grew in a culture medium containing an appropriate concentration of the antibiotic (Hygromycin 150 µg/mL). Resistance to Hygromycin gene, which had been transfected together with the reporter vector to the cells, only allowed positively transfected cells to grow in this medium. Therefore, growing cell clones were selected for further steps as stable transfectants.
After 24h incubation of cells with the tested compounds, luciferase activity was measured using VICTOR™ X Multilabel Plate Reader -Perkin Elmer.

T2 sequence (Q92731 whole entry): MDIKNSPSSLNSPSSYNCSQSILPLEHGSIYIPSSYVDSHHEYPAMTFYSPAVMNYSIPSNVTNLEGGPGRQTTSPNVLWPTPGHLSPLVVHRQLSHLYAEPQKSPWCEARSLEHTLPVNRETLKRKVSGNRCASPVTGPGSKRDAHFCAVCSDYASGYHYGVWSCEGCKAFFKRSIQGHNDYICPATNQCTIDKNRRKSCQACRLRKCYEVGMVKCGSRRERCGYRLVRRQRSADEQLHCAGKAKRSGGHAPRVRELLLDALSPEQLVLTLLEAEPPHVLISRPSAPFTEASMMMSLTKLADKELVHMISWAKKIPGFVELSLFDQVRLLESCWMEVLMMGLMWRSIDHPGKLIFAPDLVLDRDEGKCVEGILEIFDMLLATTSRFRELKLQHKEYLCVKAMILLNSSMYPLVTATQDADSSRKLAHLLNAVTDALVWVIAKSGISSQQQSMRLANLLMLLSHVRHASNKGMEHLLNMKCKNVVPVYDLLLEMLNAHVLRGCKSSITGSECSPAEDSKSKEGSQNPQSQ
T1 sequence (P06401 679-913 limits assumed): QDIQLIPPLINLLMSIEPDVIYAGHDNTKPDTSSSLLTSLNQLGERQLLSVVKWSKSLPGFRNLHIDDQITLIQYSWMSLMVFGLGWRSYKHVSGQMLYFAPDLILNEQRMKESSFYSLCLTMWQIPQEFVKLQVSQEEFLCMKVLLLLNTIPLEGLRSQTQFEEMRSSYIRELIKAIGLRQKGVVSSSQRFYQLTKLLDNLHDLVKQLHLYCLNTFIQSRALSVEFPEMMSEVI

SMILES: C[C@]12C[C@H](c3ccc(-c4ccoc4)cc3)C3=C4CCC(=O)C=C4CC[C@H]3[C@@H]1CC[C@]21OCCC1=C(F)F [EC313]
- affinity to the ligand binding domain [1]: the same as that of progesterone
- competitive displacement of [3H]-estradiol [2]: did not cause any competitive displacement
- androgenic / anti-androgenic effects (prostate plus seminal vesicle weights) [3]: neither significant androgenic nor anti-androgenic effects
- estrogenic / anti-estrogenic activity (uterine horn and vagina weights) [4]: neither estrogenic nor anti-estrogenic activity
- activity on GR in transactivation (GR): weak inhibitor
- IC50 (GR; comparative transactivation profile, read-out: Potency, GR Antagonism): 0.1 µM
